From EP4696708A1, “PEPTIDE TYROSINE-TYROSINE ANALOG AND USE THEREOF” (The United Bio-Technology (Hengqin) Co., Ltd., priority 2023, dated 2024)
*1 amine or outer side, *2 acyl side, *3 side chain or, on linkers, in order; H or OH if unused. Where a SMILES comes first, the peptide text is derived from it. Side-chain parts run from the residue outwards. [ ]: non-standard residue; d: D form. The star is where a group is joined. C18 diacid = O=C(O)CCCCCCCCCCCCCCCCC(=O)*; γGlu = O=C(O)[C@H](CCC(=O)[*:2])N[*:1]; AEEA = NCCOCCOCC(=O)O; Aib = CC(C)(N)C(=O)O

What was measured:
[1] = biological target: T1, hNPY1R (Homo sapiens, UniProt P25929); experiment: calcium flux assay (FLIPR), in vitro functional activity on human NPY1 receptor; assay type: cell-based; conditions: initial concentration 1 µM, average of at least 3 independent tests
T1 sequence (P25929 1-384): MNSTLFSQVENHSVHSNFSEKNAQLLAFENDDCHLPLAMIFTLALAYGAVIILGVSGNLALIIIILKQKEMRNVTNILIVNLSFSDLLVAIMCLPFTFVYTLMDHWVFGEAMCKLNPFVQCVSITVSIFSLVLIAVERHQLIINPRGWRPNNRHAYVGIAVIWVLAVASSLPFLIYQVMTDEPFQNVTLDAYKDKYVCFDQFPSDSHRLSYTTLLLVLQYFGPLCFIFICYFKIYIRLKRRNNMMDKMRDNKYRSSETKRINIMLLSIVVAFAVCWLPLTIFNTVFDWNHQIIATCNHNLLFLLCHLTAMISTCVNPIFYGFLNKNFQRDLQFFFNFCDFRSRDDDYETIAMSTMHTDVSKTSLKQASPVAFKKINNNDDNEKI
Procedure: • 1) Preparation of test analogue and positive reference agonist: the test analogue was diluted 4-fold to 10 concentrations using Bravo, transferred 900 nL to the analogue plate using Echo, and then added with 30 µL of detection buffer (20 mM HEPES, 1×HBSS, 0.1% casein) to each well. The initial concentration of the test analogue and the positive reference agonist were 1 µM. • 2) The cell plate was removed from the incubator (cell Y1 needs to be removed of the culture medium and added with 20 µL of detection buffer, otherwise they will all be a high signal; it is not necessary for Y5), added with 2*Fluo-4 detection reagent, 20 µL per well, incubated in a 37°C incubator for 50 minutes, and then left to stand at room temperature for 10 minutes. • 3) The cell plate, the analogue plate, and the pipette tip were placed into the FLIPR instrument, the instrument was started, and 10 µL of analogue was transferred from the analogue plate to the cell plate. […] Using the logarithm of the concentration of analogues as the horizontal axis and the activation rate of calcium ion fluorescence signal as the vertical axis, the "Nonlinear regression (curve fit)-log (antigen) vs. response Variable slope" model in GraphPad Prism 5.0 was used for fitting to calculate the EC50 of the sample.

[2] = biological target: T2, recombinant human NPY2 receptor (Homo sapiens, UniProt P49146); experiment: cAMP assay, in vitro functional activity on NPY2 receptors (inhibition of Forskolin-induced cAMP production); assay type: cell-based; conditions: HEK 293 cells overexpressing recombinant human NPY2 receptor; average of at least 3 independent tests; read-out: hNPY2R EC50
T2 construct: expressed in transfected cells; host or cells: HEK 293
T2 sequence (P49146 1-381): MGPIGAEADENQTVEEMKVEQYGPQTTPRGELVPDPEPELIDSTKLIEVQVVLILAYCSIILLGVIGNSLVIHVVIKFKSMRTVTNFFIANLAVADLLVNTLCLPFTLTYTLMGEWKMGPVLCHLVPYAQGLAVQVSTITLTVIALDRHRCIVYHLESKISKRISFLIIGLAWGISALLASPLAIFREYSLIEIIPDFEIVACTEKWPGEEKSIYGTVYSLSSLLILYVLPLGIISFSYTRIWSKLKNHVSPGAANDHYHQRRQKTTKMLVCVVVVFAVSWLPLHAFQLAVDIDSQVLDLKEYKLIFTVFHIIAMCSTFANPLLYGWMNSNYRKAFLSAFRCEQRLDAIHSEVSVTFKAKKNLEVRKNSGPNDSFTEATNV
Procedure: After addition, they were centrifuged at 1000 rpm for 1 minute. • 5) 5 µL of 2 µM Forskolin (prepared with detection buffer) was added to a 384-well cell reaction plate using Multidrop Combi and centrifuged at 1000 rpm for 1 minute. 5 µL of detection buffer containing cells was added to a 384-well reaction plate, ensuring a cell count of 3000 cells per well. […] It was covered with a lid and incubated at room temperature in the dark for 1 hour. • 7) After incubation for 1 hour, it was placed in an EnVision microplate reader for measurement.

[3] = plasma pharmacokinetics in crab-eating macaques (LC-MS/MS); assay type: in vivo; conditions: monkey, sc, male crab-eating macaques, single subcutaneous 0.246 mg/kg
Procedure: (§1) Blood samples were collected from each animal at each time point after administration, and the blood samples were centrifuged at around 4°C, 3200 g, for 10 minutes. Plasma was collected separately, transferred to pre-labeled 96-well plates or polypropylene tubes, speedily frozen on dry ice, and stored at -60°C or lower until LC-MS/MS analysis.
(§2) LC-MS/MS method was adopted to determine the concentration of the measured analogues in blood samples. The data on the changes in plasma concentration over time were plotted into a chart and analyzed using non partitioned methods with Phoenix WinNonlin 6.3 software program. Relevant PK parameters were calculated based on the administration routes.
The plasma pharmacokinetics of PYY analogues in male crab-eating macaques were evaluated after a single subcutaneous administration of 0.246 mg/kg Analogue 3. Blood samples were collected from 2 crab-eating macaques at each time point after administration for 1h, 2h, 4h, 8h, 12h, 24h, 48h, 72h, 96h, 120h, 144h, 168h, 192h, 240h, 288h, 336h, 408h, 504h, extending to 504 hours. Due to the use of discontinuous sampling to evaluate the kinetics of PYY analogues in crab-eating macaques, the pharmacokinetic parameters of Analogue 3 after a single subcutaneous administration of 0.246 mg/kg were listed using average concentration-time data.

[4] = plasma pharmacokinetics in SD rats (LC-MS/MS); assay type: in vivo; conditions: rat, sc, male rats, single subcutaneous 0.492 mg/kg
Procedure: as §1, §2
The plasma pharmacokinetics of PYY analogues in male SD rats were evaluated after a single subcutaneous administration of 0.492 mg/kg Analogue 3. Blood samples were collected from 3 rats at each time point after administration for 0.5h, 1h, 2h, 4h, 8h, 12h, 16h, 24h, 48h, 72h, 96h, 120h, 144h, 168h, extending to 168h. Due to the use of discontinuous sampling to evaluate the kinetics of PYY analogues in rats, the pharmacokinetic parameters of Analogue 3 after a single subcutaneous administration of 0.492 mg/kg were listed using average concentration-time data.

EC50 [1]	EC50 [2]	AUC(0-inf) [3]	Cmax [3]	Tmax [3]	half-life [3]	AUC(0-inf) [4]	Cmax [4]	Tmax [4]	half-life [4]	Structure (SMILES)
> 50 nM										CC(C)C[C@H](NC(=O)[C@H](Cc1ccc(O)cc1)NC(=O)[C@H](Cc1c[nH]cn1)NC(=O)[C@H](CCCNC(=N)N)NC(=O)[C@H](CC(C)C)NC(=O)[C@H](CO)NC(=O)C(C)(C)NC(=O)[C@H](Cc1ccc(O)cc1)NC(=O)[C@H](Cc1ccc(O)cc1)NC(=O)[C@H](CCCNC(=N)N)NC(=O)[C@H](CCC(N)=O)NC(=O)[C@H](Cc1c[nH]c2ccccc12)NC(=O)[C@H](CCC(=O)O)NC(=O)[C@H](CCC(=O)O)NC(=O)[C@@H]1CCCN1C(=O)[C@H](CO)NC(=O)C(C)(C)NC(=O)[C@H](CC(=O)O)NC(=O)[C@H](CCC(=O)O)NC(=O)[C@H](CCC(=O)O)NC(=O)[C@@H]1CCCN1C(=O)[C@H](CCCCNC(=O)COCCOCCNC(=O)CC[C@H](NC(=O)CCCCCCCCCCCCCCCCC(=O)O)C(=O)O)NC(=O)[C@H](CCC(=O)O)NC(=O)[C@@H]1CCCN1C(=O)[C@H](CCCCN)NC(=O)[C@@H]1CCCN1)C(=O)N[C@@H](CC(N)=O)C(=O)N[C@@H](Cc1c[nH]c2ccccc12)C(=O)N[C@@H](CC(C)C)C(=O)N[C@H](C(=O)N[C@@H](CCCNC(=N)N)C(=O)N[C@@H](CCC(N)=O)C(=O)N[C@@H](CCCNC(=N)N)C(=O)N[C@@H](Cc1ccc(O)cc1)C(N)=O)[C@@H](C)O [Analogue 1] (H-PKPEK([AEEA-γGlu-C18 diacid])PEED[Aib]SPEEWQRYY[Aib]SLRHYLNWLTRQRY-NH2)
> 50 nM	0.037 nM									CC(C)C[C@H](NC(=O)[C@H](CCC(=O)O)NC(=O)[C@H](C)NC(=O)[C@H](Cc1ccc(O)cc1)NC(=O)[C@H](Cc1ccc(O)cc1)NC(=O)[C@H](CCCNC(=N)N)NC(=O)[C@H](CCC(N)=O)NC(=O)[C@H](Cc1c[nH]c2ccccc12)NC(=O)[C@H](CCC(=O)O)NC(=O)[C@H](CCC(=O)O)NC(=O)[C@@H]1CCCN1C(=O)[C@H](CO)NC(=O)[C@H](C)NC(=O)[C@H](CC(=O)O)NC(=O)C(C)(C)NC(=O)[C@H](CCC(=O)O)NC(=O)[C@@H]1CCCN1C(=O)[C@H](CCCCNC(=O)COCCOCCNC(=O)CC[C@H](NC(=O)CCCCCCCCCCCCCCCCC(=O)O)C(=O)O)NC(=O)[C@H](CCC(=O)O)NC(=O)[C@@H]1CCCN1C(=O)[C@H](CCCCN)NC(=O)[C@@H]1CCCN1)C(=O)N[C@@H](CCCNC(=N)N)C(=O)N[C@@H](Cc1c[nH]cn1)C(=O)N[C@@H](Cc1ccc(O)cc1)C(=O)N[C@@H](CC(C)C)C(=O)N[C@@H](CC(N)=O)C(=O)N[C@@H](Cc1c[nH]c2ccccc12)C(=O)N[C@@H](CC(C)C)C(=O)N[C@H](C(=O)N[C@@H](CCCNC(=N)N)C(=O)N[C@@H](CCC(N)=O)C(=O)N[C@@H](CCCNC(=N)N)C(=O)N[C@@H](Cc1ccc(O)cc1)C(N)=O)[C@@H](C)O [Analogue 2]
> 50 nM	0.037 nM	337 µg·h/mL	1780 ng/mL	12 h	5.23 days	79600 ng·h/mL	1940 ng/mL	13.3 h	1480 min	CC(C)C[C@H](NC(=O)[C@H](Cc1ccc(O)cc1)NC(=O)[C@H](Cc1c[nH]cn1)NC(=O)[C@H](CCCNC(=N)N)NC(=O)[C@H](CC(C)C)NC(=O)[C@H](CCC(=O)O)NC(=O)C(C)(C)NC(=O)[C@H](Cc1ccc(O)cc1)NC(=O)[C@H](Cc1ccc(O)cc1)NC(=O)[C@H](CCCNC(=N)N)NC(=O)[C@H](CCC(N)=O)NC(=O)[C@H](Cc1c[nH]c2ccccc12)NC(=O)[C@H](CCC(=O)O)NC(=O)[C@H](CCC(=O)O)NC(=O)[C@@H]1CCCN1C(=O)[C@H](CO)NC(=O)[C@H](C)NC(=O)[C@H](CC(=O)O)NC(=O)C(C)(C)NC(=O)[C@H](CCC(=O)O)NC(=O)[C@@H]1CCCN1C(=O)[C@H](CCCCNC(=O)COCCOCCNC(=O)CC[C@H](NC(=O)CCCCCCCCCCCCCCCCC(=O)O)C(=O)O)NC(=O)[C@H](CCC(=O)O)NC(=O)[C@@H]1CCCN1C(=O)[C@H](CCCCN)NC(=O)[C@@H]1CCCN1)C(=O)N[C@@H](CC(N)=O)C(=O)N[C@@H](Cc1c[nH]c2ccccc12)C(=O)N[C@@H](CC(C)C)C(=O)N[C@H](C(=O)N[C@@H](CCCNC(=N)N)C(=O)N[C@@H](CCC(N)=O)C(=O)N[C@@H](CCCNC(=N)N)C(=O)N[C@@H](Cc1ccc(O)cc1)C(N)=O)[C@@H](C)O [Analogue 3]
